According to publication PMC3032312 (Cell Death & Disease, 2010):

Columns and labels:
[1] = tested on: 36 selected tumor cell lines; experiment: ATP-Lite cell viability assay; type: cell-based, human; conditions: 72 h
[2] = target: T1, Bcl-B (Homo sapiens, UniProt Q9HD36); conditions: displacement of fluorochrome-conjugated BH3 Bid peptide; ABT-737; cited from earlier work
T1 sequence (Q9HD36 1-204): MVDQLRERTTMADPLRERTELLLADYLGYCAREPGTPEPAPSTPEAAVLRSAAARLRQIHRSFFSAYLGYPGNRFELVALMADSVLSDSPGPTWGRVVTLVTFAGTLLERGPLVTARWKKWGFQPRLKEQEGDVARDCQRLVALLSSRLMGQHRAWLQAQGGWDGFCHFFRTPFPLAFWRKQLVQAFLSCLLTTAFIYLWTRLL

[3] = tested on: Mcl-1; conditions: displacement of fluorochrome-conjugated BH3 Bid peptide; cited from earlier work
[4] = tested on: Bfl-1; conditions: displacement of fluorochrome-conjugated BH3 Bid peptide; cited from earlier work

Question: Which results are given for CN(C)CC[C@H](CSc1ccccc1)Nc1ccc(S(=O)(=O)NC(=O)c2ccc(N3CCN(Cc4ccccc4-c4ccc(Cl)cc4)CC3)cc2)cc1[N+](=O)[O-] [ABT-737]?
Answer: cell killing effect in six of the studied cell lines ([1]; concentration range tested 0.1-30 μM): no effect; cytotoxic activity against leukemia/lymphoma lines ([1]; leukemia/lymphoma lines, ATP-Lite): potent cytotoxic activity; IC50 values, Bcl-B [2]: not active; IC50 values, Mcl-1 [3]: not active; IC50 values, Bfl-1 [4]: not active
